Reference: patent US20140314663A1, “PEPTIDE-MEDIATED DELIVERY OF ACTIVE AGENTS ACROSS THE BLOOD-BRAIN BARRIER” (MAYO FOUNDATION FOR MEDICAL EDUCATION AND RESEARCH, priority 2011, published 2014)

Key:
BBB [1] = assay: Length of time of BBB opening following administration of peptide; assay type: in vivo, mice
Description: A series of mice were administered 300 μg of K16ApoE followed by administration of ˜40 μL 2% EB at various time points. As a control, only EB was injected, cardiac perfusion was done 6 hours after EB injection, followed by collection of brain. For the other images, 300 μg of K16ApoE was first injected, then EB was injected after 5 min, 10 min, 30 min, 1 h, 2 h and 4 h, respectively. Then, perfusion and collection of brain was done after 5 h 55 min, 5 h 50 min, 5 h 30 min, 5 h, 4 h and 2 h, respectively).

brain = assay: Residence time of EB dye in brain following transportation by the peptide; assay type: in vivo, mice
Description: A series of mice were administered 300 μg of K16ApoE followed by administration of ˜40 μL 2% EB 10 min after administration of the peptide. As a control, only EB was injected, cardiac perfusion was done 6 hours after EB injection, followed by collection of brain. For all other mice, perfusion and collection of brains was performed 15 min, 30 min, 1 h, 2 h, 4 h, 6 h, 12, h, and 24 h following administration of EB.

[2] = tested on: brains, lungs, heart, liver, spleen and kidney; assay: Tissue distribution of Evans Blue (EB) after delivery via K16ApoE; assay type: in vivo, mice
Description: Mice were injected with various amounts of K16ApoE peptide (0 μg, 150 μg, 100 μg, 75 μg, 50 μg, 25 and μg) first. EB (40 μL of a 2% solution was injected 10 min after injection of the peptide. Tissues (brains, lungs, heart, liver, spleen and kidney) were collected 1 h after EB delivery. All injections were through the femoral vein.

BBB [3] = assay: Comparison of delivery of EB to the brain by K16ApoE and K26ApoE; assay type: in vivo; conditions: for EB dye in brain: EB 10 min later, brain collected 1 h after EB
Description: This experiment was carried out to evaluate if lengthening the lysine-chain will have any effect on the delivery of small molecules to the brain. ˜40 μL of 2% EB was injected 10 min after injection of various amounts of K16ApoE (75 μg, 100 μg, 150 μg, 250 μg, and 300 μg) or K26ApoE (25 μg, 50 μg, 75 μg, 100 μg, 125 μg, and 150 μg). K26ApoE (SEQ ID NO: 139) having the sequence: Brain tissue as was collected 1 h following EB injection. All injections were at the femoral vein.

BBB [4] = assay: Transportation of Evan's Blue (EB) dye across the BBB after iv injection of peptide; assay type: in vivo, mouse; conditions: 67.5 nanomoles K16ApoE iv injected first, then ~40 μL 2% EB; brain evaluated ~2 hours after dye
Description: (§1) To explore whether K16ApoE (SEQ. ID. NO: 42) compromises integrity of the BBB, the peptide was first injected by iv followed by injection of Evan's Blue (EB; a routinely used small molecule blue dye with a molecular weight of 960.81) by iv into the femoral vein of a mouse. Cardiac perfusion was performed and the brains of the mice were removed and evaluated approximately 2 hours following injection of the dye. As controls, a peptide consisting of 16 lysine residues (K16) and a 20-amino acid peptide comprising the LDLR-binding domain of ApoE (ApoE-FITC; (SEQ ID NO:13)), were used. The particulars of each administration are as follows: • 1) 67.5 nanomoles of K16 injected first, then ˜40 μL 2% EB was injected. • 2) Same as 1 but K16 and EB mixed prior to injection. • 3) 67.5 nanomoles of ApoE-FITC injected first, then ˜40 μL 2% EB was injected. • 4) Same as 3 but ApoE-FITC peptide and EB was mixed prior to injection. • 5) 67.5 nanomoles of K16ApoE injected first, then ˜40 μL 2% EB was injected. • 6) Same as 5 but K16ApoE peptide and EB was mixed first before injection.

BBB [5] = assay: EB transportation across the BBB as a function of the amount of K16ApoE administered; assay type: in vivo, mouse
Description: as §1
Using the method described in Example 1, various amounts of K16ApoE (SEQ. ID. NO: 42) was injected followed by administration of ˜40 μL 2% EB. […]

BBB [6] = assay: Transportation of dyes of various molecular weights across the BBB (K16ApoE or K16ApoE+IgG); assay type: in vivo, mouse
Description: as §1
To evaluate delivery of molecules of various molecular weights across the blood brain barrier, the method of Example 1 was used with Evan's Blue (EB), MW 960.81 gmol; Crocein Scarlet, MW 584.54 g/mol; and Light green SF, MW 792.86 g/mol. […]

[7] = control: only EB injected, perfusion 6 hours after EB

## Cc1cc(-c2ccc(/N=N/c3ccc4c(S(=O)(=O)O)cc(S(=O)(=O)O)c(N)c4c3O)c(C)c2)ccc1/N=N/c1ccc2c(S(=O)(=O)O)cc(S(=O)(=O)O)c(N)c2c1O [EB, Evan's Blue]
BBB [1]; [7]
  EB dye in brain: no dye was observed
brain; EB 10 min after 300 μg K16ApoE
  time after administration up to which dye remains intense (retained well) in brain: up to 4 h
  time post EB administration at which dye is first observed in brain: 15 min
brain; EB 10 min after 300 μg K16ApoE, longest time point tested
  time after administration up to which dye is still observed, less intensely, in brain: up to 24 hours
brain; [7]
  EB dye in brain: no dye is observed
[2]; EB 10 min after 0-150 μg K16ApoE, tissues collected 1 h after EB
  EB in brain: goes into brain only after injection of the peptide
[2]; EB injected after K16ApoE injection
  EB stain of tissues: Kidney, spleen and liver are stained with EB
[2]; EB injected without K16ApoE
  EB stain of tissues: Kidney, spleen, liver and heart show some EB-stain

## KKKKKKKKKKKKKKKKKKKKKKKKKKLRVRLASHLRKLRKRLLRDA (KKKKKKKKKKKKKKKKKKKKKKKKKKLRVRLASHLRKLRKRLLRDA) [K26ApoE]
BBB [3]; 25 μg of peptide
  EB dye in brain: no dye was observed
BBB [3]; 50 μg of peptide
  EB dye in brain: only a small amount of dye present
BBB [3]; 75 μg of peptide
  EB dye in brain: Increasing EB is observed
BBB [3]; K26ApoE vs K16ApoE
  effectiveness in delivering EB to the brain relative to K16ApoE: approximately two-fold

## KKKKKKKKKKKKKKKKLRVRLASHLRKLRKRLLRDA (KKKKKKKKKKKKKKKKLRVRLASHLRKLRKRLLRDA) [K16ApoE]
BBB [4]
  EB dye transported to the brain (blue coloring of brain): crosses the BBB and is transported to the brain
BBB [5]; increasing amounts of K16ApoE (100, 200, 300 μg) injected before ~40 μL 2% EB
  EB dye observed in the brain: increasing amount of EB dye present in the brain
BBB [5]; less than 100 μg K16ApoE injected before ~40 μL 2% EB
  EB dye observed in the brain: no dye is observed
BBB [6]; 300 μg K16ApoE (alone or + 300 μg IgG) injected first, then dye (EB, Crocein Scarlet, Light green SF; ~40 μL 2%)
  transport of dye to the brain: allowed transport of molecules of various sizes to the brain
BBB [6]; 300 μg K16ApoE mixed with dye (~40 μL 2%) prior to injection
  transport of dye to the brain: does not appear to cross the BBB
BBB [1]; EB injected 5 min, 10 min, 30 min after 300 μg K16ApoE
  EB dye in brain: observed
BBB [1]; EB injected 1 h and 2 h after 300 μg K16ApoE
  EB dye in brain: decreased intensity of dye observed
BBB [1]; EB injected 4 h after 300 μg K16ApoE
  EB dye in brain: little to no EB dye remaining
BBB [3]; 75 μg of peptide
  EB dye in brain: no dye was observed
BBB [3]; 100 μg of peptide
  EB dye in brain: only a small amount of dye present
BBB [3]; 150 μg of peptide and above
  EB dye in brain: Increasing EB is observed
[2]; EB 10 min after peptide, tissues collected 1 h after EB
  amount of K16ApoE giving best EB entry into brain: 150 µg
